Key:
[1] = system: ciliary motility; details: cited from earlier work
[2] = aqueous solution at physiologic pH; cited from earlier work
[3] = Treatment of radiation-induced lung damage using nebulized enoxaparin and N-acetylcysteine; assay type: in vivo, human
Protocol: This example describes treatment of radiation-induced lung damage using nebulized enoxaparin and N-acetylcysteine. A patient with unresectable lung cancer, such as locally advanced or metastatic stage III/oligometastatic IV non-small cell lung carcinoma, who has received radiation therapy is administered nebulized enoxaparin via inhalation. The enoxaparin is purified to remove elemental impurities, as described in EXAMPLE 1, and formulated in water at a concentration of 100 mg/mL for a nebulized composition as described in EXAMPLE 2. A dose of either 0.5 mg enoxaparin per kg patient weight (mg/kg), 1 mg/kg, or 2 mg/kg of the aqueous enoxaparin formulation is nebulized and administered to the subject via inhalation every 12 hours for 14 days, followed by 14 days of no enoxaparin treatment. N-acetylcysteine is administered by inhalation via nebulization at 600 mg per dose 30 minutes after each dose of enoxaparin. The 28-day treatment cycle begins 4-6 weeks after completion of radiation therapy, and the treatment cycle is repeated for up to 6 cycles in the absence of disease progression or unacceptable toxicity. The patient continues to receive best supportive care for the lung cancer (e.g., chemotherapy therapy) while undergoing enoxaparin treatment.
(§1) Additionally, the enoxaparin therapy may reduce the recurrence of the lung cancer by slowing cancer progression through inhibition of mutagenic proliferation, adhesion, angiogenesis, migration, and invasion of cancer cells.

[4] = Treatment of chemotherapy-induced lung damage using nebulized heparin and N-acetylcysteine; assay type: in vivo, human
Protocol: This example describes treatment of chemotherapy-induced lung damage using nebulized heparin and N-acetylcysteine. A patient with unresectable lung cancer, such as locally advanced or metastatic stage III/oligometastatic IV non-small cell lung carcinoma, who is undergoing chemotherapy therapy with bleomycin, carmustine, lomustine, busulfan, daunorubicin, doxorubicin, or idarubicin is administered nebulized enoxaparin via inhalation. The enoxaparin is purified to remove elemental impurities, as described in EXAMPLE 1, and formulated in water at a concentration of 100 mg/mL for a nebulized composition as described in EXAMPLE 2. A dose of either 0.5 mg enoxaparin per kg patient weight (mg/kg), 1 mg/kg, or 2 mg/kg of the aqueous enoxaparin formulation is nebulized and administered to the subject via inhalation every 12 hours for 14 days, followed by 14 days of no enoxaparin treatment. N-acetylcysteine is administered by inhalation via nebulization at 600 mg per dose 30 minutes after each dose of enoxaparin. The 28-day treatment cycle is repeated for up to 6 cycles in the absence of disease progression or unacceptable toxicity. The patient continues to receive best supportive care for the lung cancer (e.g., chemotherapy therapy) while undergoing enoxaparin treatment.
as §1

[5] = same regimen, after radiation therapy
[6] = same regimen, during chemotherapy

2-alkyl-4-hydroxyquinolines [pyo compound]
concentration producing ciliostasis / inhibiting ciliary motility ([1]; ciliostatic factors from Pseudomonas aeruginosa): 50 µg/mL

CCN(CC)/[N+]([O-])=N/O.CCNCC [diethylamine/NO]
time scale of NO release [2]: < 3 min

NCCN(CCN)/[N+]([O-])=N/O [diethylenetriamine/NO]
time scale of NO release [2]: approximately 20 hours

enoxaparin
development of radiation-induced pneumonitis ([3]; patient with unresectable lung cancer after radiation therapy, 0.5, 1 or 2 mg/kg inhaled every 12 hours for 14 days, N-acetylcysteine 600 mg after each dose): treats, prevents, or slows the development
airway inflammation [3, 5]: decreases airway inflammation
coagulation activation and pulmonary venous thromboembolism [3, 5]: prevents coagulation activation and pulmonary venous thromboembolism
release of inflammatory cytokines, such as IL-6 [3, 5]: inhibits release
development of chemotherapy-induced pneumonitis ([4]; patient with unresectable lung cancer undergoing chemotherapy, 0.5, 1 or 2 mg/kg inhaled every 12 hours for 14 days, N-acetylcysteine 600 mg after each dose): treats, prevents, or slows the development
airway inflammation [4, 6]: decreases airway inflammation
coagulation activation and pulmonary venous thromboembolism [4, 6]: prevents coagulation activation and pulmonary venous thromboembolism
release of inflammatory cytokines, such as IL-6 [4, 6]: inhibits release

rhamnolipid
effect on cilia ([1]; limited exposure of tracheal explants): resulted in ciliostasis

Source: US20260034166A1, “HEPARIN COMPOSITIONS FOR TREATMENT OF LUNG DAMAGE AND METHODS OF USE THEREOF” (Atossa Therapeutics, Inc., priority 2022, published 2026)
